In patent EP4206196A1, “PYRIMIDINE SUBSTITUTED DERIVATIVES AS TYK2 INHIBITORS” (Almirall S.A., priority 2021, dated 2023):

Legend:
[1] = tested on: STAT1/3 through TYK2/JAK1; assay: IFNa induced STAT phosphorylation in HEK293 cells (SIE-bla reporter gene); assay type: cell-based; settings: Homo sapiens, HEK293; HEK293T-sie-bla cells, IFNa at EC80, 4 hours; read-out: Inhibition of IFNa induced STAT phosphorylation HEK293 cells IC50
Method: Stimulation of HEK293T-sie-bla cells with interferon alpha (INFa) activates the signaling pathway of STAT1/3 through TYK2/JAK1. In this assay, measurement of the activity of the reporter gene […]-lactamase expression was used as the readout.
CellSensorTM SIE-bla HEK293T cell line were purchased from Thermo Fisher Scientific (ref. #K1649B) and cultured as specified by the provider. A number of 30.000 cells per well (40 µl) were plated in a 384-well plate (Corning ref.# 3712) and cultured overnight at 37°C with 5% CO2 in a complete Optimem media (ThermoFisher ref. #11058-021) containing 0.5% (v/v) heat inactivated dialyzed FBS (Life Technologies ref. #26400044), 10 µM non-essential aminoacids NEAA (Sigma ref. #M7145), 100 µM Sodium Pyruvate (Gibco ref. #11360-039) and 100 U/mL Penicillin (Sigma ref. #P0781). Compounds were initially dissolved in 100% DMSO. Compound curves were then prepared using a 1/5 serial dilution (10 dilutions). The dilutions were directly diluted in complete Optimem media at 40-fold their final concentration in 20% DMSO. IFNa initial solution (R&D systems ref. #11100-1) was prepared at 10-fold its EC80 in complete Optimem media. Compounds and IFNa were added simultaneously to the wells with cells and incubated during 4 hours at 37°C (the final DMSO was 0.1%). The […]-lactamase substrate (LifeTechnologies ref.#K1138) was prepared at 6-fold its final concentration as specified by the provider. Then 10 µL of the mixture was added to the wells to stop the stimulation. Plate was left in the dark over-night. Then a FRET reading was performed on an appropriate plate reader.
All experiments were analysed using an ExcelFit template and the four-parameter log equation. […] TABLE 2: IC50 Inhibitions of IFNa induced STAT phosphorylation in HEK293 cells

[2] = target: T1, TYK2 (JH2domain-pseudokinase) (Homo sapiens, UniProt P29597); assay: TYK2 JH2 domain binding assay (KINOMEscan)
T1 construct: TYK2 (JH2domain-pseudokinase)-tagged T7 phage strains were prepared in an E. coli host derived from the BL21 strain; made in house; host or cells: E. coli BL21-derived host (T7 phage) or HEK-293 cells
Method: TYK2 (JH2domain-pseudokinase) KINOMEscan assay. For the assay, TYK2 (JH2domain-pseudokinase)-tagged T7 phage strains were prepared in an E. coli host derived from the BL21 strain.E. coli were grown to log-phase and infected with T7 phage and incubated with shaking at 32°C until lysis. The lysates were centrifuged and filtered to remove cell debris. The remaining TYK2 (JH2domain-pseudokinase) were produced in HEK-293 cells and subsequently tagged with DNA for qPCR detection. Streptavidin-coated magnetic beads were treated with biotinylated small molecule ligands for 30 minutes at room temperature to generate affinity resins for kinase assays. The liganded beads were blocked with excess biotin and washed with blocking buffer (SeaBlock (Pierce), 1% BSA, 0.05% Tween 20, 1 mM DTT) to remove unbound ligand and to reduce non-specific binding. Binding reactions were assembled by combining TYK2 (JH2domain-pseudokinase), liganded affinity beads, and test compounds in 1x binding buffer (20% SeaBlock, 0.17x PBS, 0.05% Tween 20, 6 mM DTT). Test compounds were prepared as 111X stocks in 100% DMSO. Kds were determined using an 11-point 3-fold compound dilution series with three DMSO control points. All compounds for Kd measurements are distributed by acoustic transfer (non-contact dispensing) in 100% DMSO. The compounds were then diluted directly into the assays such that the final concentration of DMSO was 0.9%. All reactions performed in polypropylene 384-well plate. Each was a final volume of 0.02 ml. The assay plates were incubated at room temperature with shaking for 1 hour and the affinity beads were washed with wash buffer (1x PBS, 0.05% Tween 20). The beads were then re-suspended in elution buffer (1x PBS, 0.05% Tween 20, 0.5 µM non-biotinylated affinity ligand) and incubated at room temperature with shaking for 30 minutes. The kinase concentration in the eluates was measured by qPCR. […]
An 11-point 3-fold serial dilution of each test compound was prepared in 100% DMSO at 100x final test concentration and subsequently diluted to 1x in the assay (final DMSO concentration = 1%). Most Kds were determined using a compound top concentration = 30,000 nM. If the initial Kd determined was < 0.5 nM (the lowest concentration tested), the measurement was repeated with a serial dilution starting at a lower top concentration.
Curves were fitted using a non-linear least square fit with the Levenberg-Marquardt algorithm. […] TABLE 1: Kd Affinities for Tyk2 JH2 Domain Binding Assay.

T1 sequence (P29597 589-875 limits assumed): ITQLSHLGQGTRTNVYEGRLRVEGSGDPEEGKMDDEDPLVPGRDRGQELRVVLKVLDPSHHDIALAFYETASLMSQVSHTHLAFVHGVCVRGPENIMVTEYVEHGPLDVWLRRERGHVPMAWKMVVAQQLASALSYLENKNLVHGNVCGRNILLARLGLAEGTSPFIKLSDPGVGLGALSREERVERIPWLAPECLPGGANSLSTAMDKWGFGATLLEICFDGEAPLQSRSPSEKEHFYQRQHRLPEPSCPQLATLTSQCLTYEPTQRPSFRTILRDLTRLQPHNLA

IC50 [1]	Kd [2]	SMILES
10 to 100 nM	0.2 to 1 nM	COCCn1cnc(-c2cccc(Nc3cc(Nc4cc(C)nc(C)n4)ncn3)c2OC)n1 [Example 44, N6-(2,6-dimethylpyrimidin-4-yl)-N4-[2-methoxy-3-[1-(2-methoxyethyl)-1,2,4-triazol-3-yl]phenyl]pyrimidine-4,6-diamine]
10 to 100 nM	< 0.2 nM	CCn1cnc(-c2cccc(Nc3cc(Nc4cc(C)nc(C)n4)ncn3)c2OC)n1 [Example 46, N4-(2,6-dimethylpyrimidin-4-yl)-N6-[3-(1-ethyl-1,2,4-triazol-3-yl)-2-methoxy-phenyl]pyrimidine-4,6-diamine]
10 to 100 nM	0.2 to 1 nM	COc1c(Nc2cc(Nc3cc(C)nc(C)n3)ncn2)cccc1-c1ncn(CC2CCCCO2)n1 (centres unmarked) [Example 47, N4-(2,6-dimethylpyrimidin-4-yl)-N6-[2-methoxy-3-[1-(tetrahydropyran-2-ylmethyl)-1,2,4-triazol-3-yl]phenyl]pyrimidine-4,6-diamine]
> 1000 nM	> 10 nM	COc1c(Nc2cc(Nc3cc(C)nc(C)n3)ncn2)cccc1-c1nc(C)nn1C1COC1 [Example 48, N4-(2,6-dimethylpyrimidin-4-yl)-N6-[2-methoxy-3-[5-methyl-2-(oxetan-3-yl)-1,2,4-triazol-3-yl]phenyl]pyrimidine-4,6-diamine]
> 1000 nM	0.2 to 1 nM	COc1c(Nc2cc(Nc3cc(C)nc(C)n3)ncn2)cccc1-c1nc(C)n(C2COC2)n1 [Example 49, N4-(2,6-dimethylpyrimidin-4-yl)-N6-[2-methoxy-3-[5-methyl-1-(oxetan-3-yl)-1,2,4-triazol-3-yl]phenyl]pyrimidine-4,6-diamine]
100 to 1000 nM	1 to 10 nM	COc1c(Br)cccc1Nc1cc(Nc2cc(C)nc(C)n2)ncn1 [Example 50, N6-(3-bromo-2-methoxy-phenyl)-N4-(2,6-dimethylpyrimidin-4-yl)pyrimidine-4,6-diamine]
10 to 100 nM	< 0.2 nM	COc1c(Nc2cc(Nc3cc(C)nc(C)n3)ncn2)cccc1-c1ncn(CC2COC2)n1 [Example 51, N6-(2,6-dimethylpyrimidin-4-yl)-N4-[2-methoxy-3-[1-(oxetan-3-ylmethyl)-1,2,4-triazol-3-yl]phenyl]pyrimidine-4,6-diamine]
100 to 1000 nM	0.2 to 1 nM	COc1c(Nc2cc(Nc3cc(C)nc(C)n3)ncn2)cccc1-c1ncn(CC2CCOCC2)n1 [Example 52, N4-(2,6-dimethylpyrimidin-4-yl)-N6-[2-methoxy-3-[1-(tetrahydropyran-4-ylmethyl)-1,2,4-triazol-3-yl]phenyl]pyrimidine-4,6-diamine]
100 to 1000 nM	0.2 to 1 nM	COc1c(Nc2cc(Nc3cc(C)nc(C)n3)ncn2)cccc1-c1ncn(CC2CC(F)(F)C2)n1 [Example 53, N6-[3-[1-[(3,3-difluorocyclobutyl)methyl]-1,2,4-triazol-3-yl]-2-methoxyphenyl]-N4-(2,6-dimethylpyrimidin-4-yl)pyrimidine-4,6-diamine]
10 to 100 nM	0.2 to 1 nM	COc1c(Nc2cc(Nc3cc(C)nc(C)n3)ncn2)cccc1-c1ncn(C2CC2(F)F)n1 (centres unmarked) [Example 55, N6-[3-[1-(2,2-difluorocyclopropyl)-1,2,4-triazol-3-yl]-2-methoxy-phenyl]-N4-(2,6-dimethylpyrimidin-4-yl)pyrimidine-4,6-diamine]
100 to 1000 nM	1 to 10 nM	Cc1cc(Nc2cc(Nc3nccc(C)c3N(C)S(C)(=O)=O)ncn2)nc(C)n1 [Example 61, N-(2-((6-((2,6-dimethylpyrimidin-4-yl)amino)pyrimidin-4-yl)amino)-4-methylpyridin-3-yl)-N-methylmethanesulfonamide]
10 to 100 nM	< 0.2 nM	COc1c(Nc2cc(Nc3cc(C)nc(C)n3)ncn2)cccc1-c1noc(CN2CCOCC2)n1 [Example 62, N6-(2,6-dimethylpyrimidin-4-yl)-N4-[2-methoxy-3-[5-(morpholinomethyl)-1,2,4-oxadiazol-3-yl]phenyl]pyrimidine-4,6-diamine]
10 to 100 nM	0.2 to 1 nM	COc1c(Nc2cc(Nc3cc(C)nc(C)n3)ncn2)ccc(C)c1-c1ncn(C)n1 [Example 63, 6-N-(2,6-dimethylpyrimidin-4-yl)-4-N-[2-methoxy-4-methyl-3-(1-methyl-1,2,4-triazol-3-yl)phenyl]pyrimidine-4,6-diamine]
100 to 1000 nM	0.2 to 1 nM	COc1c(Nc2cc(Nc3cc(C)nc(C)n3)ncn2)ccc(F)c1-c1ncn(C)n1 [Example 64, N4-(2,6-dimethylpyrimidin-4-yl)-N6-[4-fluoro-2-methoxy-3-(1-methyl-1,2,4-triazol-3-yl)phenyl]pyrimidine-4,6-diamine]
10 to 100 nM	0.2 to 1 nM	COc1c(Nc2cc(Nc3ccc(F)cn3)ncn2)cccc1-c1ncn(C)n1 [Example 65, N4-(5-fluoro-2-pyridyl)-N6-[2-methoxy-3-(1-methyl-1,2,4-triazol-3-yl)phenyl]pyrimidine-4,6-diamine]
100 to 1000 nM	0.2 to 1 nM	Cc1cc(Nc2cc(Nc3ccccc3CS(C)(=O)=O)ncn2)nc(C)n1 [Example 66, N4-(2,6-dimethylpyrimidin-4-yl)-N6-[2-(methylsulfonylmethyl)phenyl]pyrimidine-4,6-diamine]
10 to 100 nM	< 0.2 nM	Cc1cc(Nc2cc(Nc3ccc(Br)cc3N(C)S(C)(=O)=O)ncn2)nc(C)n1 [Example 67, N-[5-bromo-2-[[6-[(2,6-dimethylpyrimidin-4-yl)amino]pyrimidin-4-yl]amino]phenyl]-N-methyl-methanesulfonamide]
10 to 100 nM	< 0.2 nM	Cc1ccc(Nc2cc(Nc3cc(C)nc(C)n3)ncn2)c(N(C)S(C)(=O)=O)c1 [Example 69, N-[2-[[6-[(2,6-dimethylpyrimidin-4-yl)amino]pyrimidin-4-yl]amino]-5-methyl-phenyl]-N-methyl-methanesulfonamide]
10 to 100 nM	< 0.2 nM	Cc1cc(Nc2cc(Nc3ccccc3N(C)S(=O)(=O)C(F)(F)F)ncn2)nc(C)n1 [Example 71, N-[2-[[6-[(2,6-dimethylpyrimidin-4-yl)amino]pyrimidin-4-yl]amino]phenyl]-1,1,1-trifluoro-N-methyl-methanesulfonamide]
100 to 1000 nM	1 to 10 nM	Cc1cc(Nc2cc(Nc3ccccc3C(C)S(C)(=O)=O)ncn2)nc(C)n1 (centres unmarked) [Example 72, N4-(2,6-dimethylpyrimidin-4-yl)-N6-[2-(1-methylsulfonylethyl)phenyl]pyrimidine-4,6-diamine]
> 1000 nM	> 10 nM	Cc1cc(Nc2cc(Nc3ccccc3S(=O)(=O)N3CCCCC3)ncn2)nc(C)n1 [Example 73, N6-(2,6-dimethylpyrimidin-4-yl)-N4-[2-(1-piperidylsulfonyl)phenyl]pyrimidine-4,6-diamine]
10 to 100 nM	< 0.2 nM	Cc1cc(Nc2cc(Nc3cc(F)ccc3N(C)S(C)(=O)=O)ncn2)nc(C)n1 [Example 75, N-[2-[[6-[(2,6-dimethylpyrimidin-4-yl)amino]pyrimidin-4-yl]amino]-4-fluorophenyl]-N-methylmethanesulfonamide]
